The results in this text go back to patent US8178506B2, “Oligomeric compounds and compositions for use in modulation of small non-coding RNAs” (Regulus Therapeutics Inc., priority 2003, dated 2012).

In the oligonucleotide strings, read from the 5' end, every base follows the letter of its sugar. An asterisk marks phosphorothioate; unmarked linkages are phosphodiester. Other units and linkages are bracketed, terminal groups are in braces. A string of capitals states the bases alone. e = 2'-O-(2-methoxyethyl) (MOE); [5mC] = 5-methylcytosine

Holding throughout (type): cell-based, human
In one series the test system is adipocytes. As to the kind of experiment: Triglyceride accumulation assay in adipocytes.
Another series relates to aP2. Put plainly: aP2 mRNA expression in adipocytes (real-time PCR). The conditions noted are these: for aP2 mRNA: differentiating adipocytes transfected with oligomeric compound, Table 75; for AP2 mRNA: Table 17, differentiating adipocytes, control = treatment with ISIS 342673. In general terms: Real-time PCR tracks product formation cycle by cycle.
For a further series, the system named is HSL. Put plainly: HSL mRNA expression in adipocytes (real-time PCR).
The subject of another series is Glut4. As to the kind of experiment: Glut4 mRNA expression in adipocytes (real-time PCR).
Another series deals with PPARγ. As to the kind of experiment: PPARγ mRNA expression in adipocytes (real-time PCR).
The mark [1] stands for this setting: differentiating adipocytes transfected with oligomeric compound, Table 75.
[2] abbreviates: Table 17, differentiating adipocytes, control = treatment with ISIS 342673.

Regarding “346694 (AACCCAUGGAAUUCAGUUCUCA; all 2'-MOE, all phosphorothioate, methylation of C and T or U not given here) [compound 346694]”, the “TG (triglyceride accumulation)” value in the series with adipocytes (setting [1]) is listed as 31 percentage of untreated control (UTC). For the same substance, the “aP2 mRNA” value with aP2 was 41 percentage of untreated control (UTC). The “HSL mRNA” value with HSL (setting [1]) is given as 18 percentage of untreated control (UTC). Further, the “GLUT4 mRNA” value in the series with Glut4 (setting [1]) is given as 5 percentage of untreated control (UTC). The “PPAR gamma mRNA” value with PPARγ (setting [1]) is 32 percentage of untreated control (UTC).
For “340354 (antisense UCAGACCGAGACAAGUGCAAUG; all 2'-MOE, all phosphorothioate, methylation of C and T or U not given here) [compound 340354]” the same measures were 64 percentage of untreated control (UTC), 72 percentage of untreated control (UTC), 56 percentage of untreated control (UTC), 61 percentage of untreated control (UTC) and 74 percentage of untreated control (UTC).
In the case of “328121 (antisense eA*eT*eG*eA*e[5mC]*eT*eA*e[5mC]*eA*eA*eG*eT*eT*eT*eA*eT*eG*eG*e[5mC]*e[5mC]*eA) [compound 328121]”, the “TG (triglyceride accumulation)” value with adipocytes (setting [2]) was 134.8 percentage of control; in the series with adipocytes (setting [1]) it was 119 percentage of untreated control (UTC). In the series with aP2, the “AP2 mRNA” value is reported as 127.0 percentage of control. The “aP2 mRNA” value with aP2 was 119 percentage of untreated control (UTC). In addition, the “HSL mRNA” value is reported as 126.0 percentage of control in the series on HSL (setting [2]) and 110 percentage of untreated control (UTC) in the series on HSL (setting [1]). Further, the figures for the “GLUT4 mRNA” value in the series with Glut4 (setting [2]) and in the series with Glut4 (setting [1]) were 140.8 percentage of control and 115 percentage of untreated control (UTC), respectively. The “PPAR gamma mRNA” value with PPARγ (setting [2]) is reported as 103.6 percentage of control; in the series on PPARγ (setting [1]), 105 percentage of untreated control (UTC).
Consider “341797 (antisense ACAAGUGCCUUCACUGCAGU; all 2'-MOE, all phosphorothioate, methylation of C and T or U not given here) [compound 341797]”, for which the “TG (triglyceride accumulation)” value with adipocytes (setting [1]) was 20 percentage of untreated control (UTC). Besides, the “aP2 mRNA” value in the series on aP2 is 45 percentage of untreated control (UTC). Moreover, in the series with HSL (setting [1]), the “HSL mRNA” value is given as 29 percentage of untreated control (UTC). Moreover, the “GLUT4 mRNA” value in the series on Glut4 (setting [1]) is reported as 17 percentage of untreated control (UTC). Further, the “PPAR gamma mRNA” value in the series on PPARγ (setting [1]) is 50 percentage of untreated control (UTC).
On the same counts, the results for “346913 (AGAAAGGCAGCAGGUCGUAUAG; all 2'-MOE, all phosphorothioate, methylation of C and T or U not given here) [compound 346913]” are 63 percentage of untreated control (UTC), 66 percentage of untreated control (UTC), 58 percentage of untreated control (UTC), 40 percentage of untreated control (UTC) and 59 percentage of untreated control (UTC).
With “344276 (antisense CAGGCAUAGGAUGACAAAGGGAA; all 2'-MOE, all phosphorothioate, methylation of C and T or U not given here) [compound 344276]”, the “TG (triglyceride accumulation)” value with adipocytes (setting [1]) is reported as 66 percentage of untreated control (UTC). In addition, in the series with aP2, the “aP2 mRNA” value is 72 percentage of untreated control (UTC). Moreover, the “HSL mRNA” value in the series with HSL (setting [1]) is on record as 68 percentage of untreated control (UTC). Also, in the series on Glut4 (setting [1]), the “GLUT4 mRNA” value was 49 percentage of untreated control (UTC). The “PPAR gamma mRNA” value in the series on PPARγ (setting [1]) was 72 percentage of untreated control (UTC).
For the substance “328096 (antisense e[5mC]*e[5mC]*eT*e[5mC]*eT*e[5mC]*eA*eA*eA*eG*eA*eT*eT*eT*e[5mC]*e[5mC]*eT*eG*eT*e[5mC]*eA) [compound 328096]”, the “TG (triglyceride accumulation)” value in the series on adipocytes (setting [1]) is recorded as 74 percentage of untreated control (UTC). In the series on aP2, the “aP2 mRNA” value is listed as 71 percentage of untreated control (UTC). In the series with HSL (setting [1]), the “HSL mRNA” value is 76 percentage of untreated control (UTC). In addition, the “GLUT4 mRNA” value in the series with Glut4 (setting [1]) was 79 percentage of untreated control (UTC). Further, the “PPAR gamma mRNA” value in the series with PPARγ (setting [1]) is reported as 89 percentage of untreated control (UTC).
On the same counts, the results for “328098 (antisense eG*eA*eG*eA*eA*eT*e[5mC]*eA*eA*eT*eA*eG*eG*eG*e[5mC]*eA*eT*eG*e[5mC]*eA*eA) [compound 328098]” are 39 percentage of untreated control (UTC), 23 percentage of untreated control (UTC), 28 percentage of untreated control (UTC), 25 percentage of untreated control (UTC) and 54 percentage of untreated control (UTC).
For “346688 (UAGUUGGCAAGUCUAGAACCA; all 2'-MOE, all phosphorothioate, methylation of C and T or U not given here) [compound 346688]” the same measures were 33 percentage of untreated control (UTC), 48 percentage of untreated control (UTC), 39 percentage of untreated control (UTC), 12 percentage of untreated control (UTC) and 55 percentage of untreated control (UTC).
For “344275 (antisense UCUAGUGGUCCUAAACAUUUCA; all 2'-MOE, all phosphorothioate, methylation of C and T or U not given here) [compound 344275]” the same measures were 36 percentage of untreated control (UTC), 36 percentage of untreated control (UTC), 39 percentage of untreated control (UTC), 21 percentage of untreated control (UTC) and 46 percentage of untreated control (UTC).
With “346906 (ACAGGAUUGAGGGGGGGCCCU; all 2'-MOE, all phosphorothioate, methylation of C and T or U not given here) [compound 346906]”, in the series with adipocytes (setting [1]), the “TG (triglyceride accumulation)” value is on record as 83 percentage of untreated control (UTC). The “aP2 mRNA” value in the series with aP2 is 77 percentage of untreated control (UTC). Further, the “HSL mRNA” value in the series with HSL (setting [1]) is listed as 70 percentage of untreated control (UTC). Moreover, in the series with Glut4 (setting [1]), the “GLUT4 mRNA” value is listed as 70 percentage of untreated control (UTC). Besides, in the series on PPARγ (setting [1]), the “PPAR gamma mRNA” value is 80 percentage of untreated control (UTC).
Regarding “328131 (antisense eA*eT*eA*eT*eG*eT*e[5mC]*eA*eT*eA*eT*e[5mC]*eA*eA*eA*e[5mC]*eT*e[5mC]*e[5mC]*eT*eA) [compound 328131]”, the “TG (triglyceride accumulation)” value in the series with adipocytes (setting [2]) was 89.1 percentage of control; with adipocytes (setting [1]), 74 percentage of untreated control (UTC). Further, the “AP2 mRNA” value in the series with aP2 is reported as 95.4 percentage of control. For the same substance, the “aP2 mRNA” value in the series on aP2 is reported as 63 percentage of untreated control (UTC). In addition, the “HSL mRNA” value was 81.8 percentage of control with HSL (setting [2]) and 51 percentage of untreated control (UTC) in the series on HSL (setting [1]). Moreover, the entries for the “GLUT4 mRNA” value with Glut4 (setting [2]) and in the series with Glut4 (setting [1]) were 103.6 percentage of control and 56 percentage of untreated control (UTC), respectively. Moreover, the “PPAR gamma mRNA” value in the series with PPARγ (setting [2]) is 88.2 percentage of control; with PPARγ (setting [1]) it was 55 percentage of untreated control (UTC).
As for “340360 (antisense GCAACUUAGUAAUGUGCAAUA; all 2'-MOE, all phosphorothioate, methylation of C and T or U not given here) [compound 340360]”, the “TG (triglyceride accumulation)” value with adipocytes (setting [1]) is recorded as 106 percentage of untreated control (UTC). In addition, the “aP2 mRNA” value in the series on aP2 is on record as 102 percentage of untreated control (UTC). For the same substance, the “HSL mRNA” value in the series with HSL (setting [1]) is recorded as 102 percentage of untreated control (UTC). Besides, the “GLUT4 mRNA” value with Glut4 (setting [1]) is on record as 91 percentage of untreated control (UTC). The “PPAR gamma mRNA” value in the series on PPARγ (setting [1]) is listed as 96 percentage of untreated control (UTC).
Regarding “346695 (CACUGGUACAAGGGUUGGGAGA; all 2'-MOE, all phosphorothioate, methylation of C and T or U not given here) [compound 346695]”, the “TG (triglyceride accumulation)” value with adipocytes (setting [1]) is on record as 69 percentage of untreated control (UTC). The “aP2 mRNA” value in the series on aP2 is recorded as 72 percentage of untreated control (UTC). The “HSL mRNA” value in the series with HSL (setting [1]) is 73 percentage of untreated control (UTC). Moreover, in the series with Glut4 (setting [1]), the “GLUT4 mRNA” value is 58 percentage of untreated control (UTC). Besides, the “PPAR gamma mRNA” value in the series on PPARγ (setting [1]) is reported as 78 percentage of untreated control (UTC).
For “346910 (GCAAUCAGCUAACUACACUGCCU; all 2'-MOE, all phosphorothioate, methylation of C and T or U not given here) [compound 346910]” the same measures were 80 percentage of untreated control (UTC), 78 percentage of untreated control (UTC), 69 percentage of untreated control (UTC), 63 percentage of untreated control (UTC) and 83 percentage of untreated control (UTC).
For “328095 (antisense eT*e[5mC]*eA*e[5mC]*eA*eG*eA*eG*eA*eA*eA*eA*e[5mC]*eA*eA*e[5mC]*eT*eG*eG*eT*eA) [compound 328095]”, the “TG (triglyceride accumulation)” value with adipocytes (setting [1]) is listed as 110 percentage of untreated control (UTC). Further, the “aP2 mRNA” value in the series on aP2 is recorded as 70 percentage of untreated control (UTC). Besides, in the series on HSL (setting [1]), the “HSL mRNA” value was 83 percentage of untreated control (UTC). For the same substance, in the series on Glut4 (setting [1]), the “GLUT4 mRNA” value is reported as 98 percentage of untreated control (UTC). Also, in the series on PPARγ (setting [1]), the “PPAR gamma mRNA” value is 92 percentage of untreated control (UTC).
